The values that follow come from ChEMBL document CHEMBL1151633, “Biological Activities of Asterosaponins With Special Reference to Structure-Activity Relationships” (J Nat Prod, 1984).

≈ marks a conversion by molar mass, not a printed value. Calls of active or inactive are those of the source. The rule behind the calls is not given here.

Data set [1] relates to Patiria pectinifera. As to the kind of experiment: Inhibition of actin polymerization in starfish during embryogenesis.
Data set [2] deals with Patiria pectinifera. As to the kind of experiment: Effect on starfish embryo development assessed as abnormal embryo induction at bastula or gastula stage after 24 hrs by lactoorcein staining. Type of data set: functional.
A short description of data set [3]: Toxicity in sea urchin embryo assessed as inhibition of embryo development before morula stage after 24 hrs by microscopy. Conditions: hemicentrotus pulcherrimus.
The subject of data set [4] is Hemicentrotus pulcherrimus. As to the kind of experiment: Inhibition of first cleavage in sea urchin embryo after 1.5 hrs by microscopy. Type of data set: functional.
Data set [5] can be described thus: Toxicity in rabbit RBC assessed as hemolytic index. Type of data set: cell-based, Oryctolagus cuniculus. Conditions: erythrocyte.

Consider `CC(C)=CC(=O)C[C@@](C)(O)[C@H]1CC[C@H]2[C@@H]3C[C@H](OC4O[C@H](CO)[C@@H](O)[C@H](OC5O[C@H](C)[C@@H](OC6O[C@H](C)[C@@H](O)[C@H](O)[C@H]6OC6O[C@H](C)[C@H](O)[C@H](O)[C@H]6O)[C@H](O)[C@H]5OC5O[C@H](C)[C@@H](O)[C@H](O)[C@H]5O)[C@H]4O)[C@H]4C[C@@H](OS(=O)(=O)[O-])CC[C@]4(C)C3=CC[C@@]21C.[Na+]` (stereo partly drawn), for which, in the data set on Patiria pectinifera [1], the result was Active. Moreover, the ED50 was found to be 50 µg/mL with Patiria pectinifera [2] and 10 µg/mL in data set [4]. In addition, the LD99 in data set [3] is 5 µg/mL.
With `CC(C)CC(=O)C[C@@](C)(O)[C@H]1CC[C@H]2[C@@H]3C[C@H](OC4O[C@H](C)[C@@H](O)[C@H](OC5OC[C@@H](OC6O[C@H](C)[C@@H](O)[C@H](O)[C@H]6OC6O[C@H](C)[C@H](O)[C@H](OC7O[C@H](C)[C@H](O)[C@H](O)[C@H]7O)[C@H]6O)[C@H](O)[C@H]5OC5O[C@H](C)[C@@H](O)[C@H](O)[C@H]5O)[C@H]4O)[C@H]4C[C@@H](O)CC[C@]4(C)C3=CC[C@@]21C` (stereo partly drawn), the outcome with Patiria pectinifera [1] was Active. In addition, the ED50 was 100 µg/mL (≈ 77.2 µM) with Patiria pectinifera [2] and 50 µg/mL (≈ 38.6 µM) in data set [4]. In addition, the HI in data set [5] was less than 2550. Moreover, in data set [3], the LD99 is 10 µg/mL.
As to `CC(C)C(C)C(=O)C[C@@](C)(O)[C@H]1CC[C@H]2[C@@H]3C[C@H](OC4O[C@H](C)[C@@H](O)[C@H](OC5OC[C@@H](OC6O[C@H](C)[C@@H](O)[C@H](O)[C@H]6OC6O[C@H](C)[C@H](O)[C@H](OC7O[C@H](C)[C@H](O)[C@H](O)[C@H]7O)[C@H]6O)[C@H](O)[C@H]5OC5O[C@H](C)[C@@H](O)[C@H](O)[C@H]5O)[C@H]4O)[C@H]4C[C@@H](OS(=O)(=O)[O-])CC[C@]4(C)C3=CC[C@@]21C.[Na+]` (stereo partly drawn), in the data set on Patiria pectinifera [1], the outcome was Active. Further, the figures for the ED50 (in the data set with Patiria pectinifera [2]; in data set [4]) were 200 µg/mL and 10 µg/mL, respectively. Also, the HI in data set [5] came out at 10700. The LD99 in data set [3] amounted to 5 µg/mL.
In the case of `CC(C)=CC(=O)C[C@@](C)(O)[C@H]1CC[C@H]2[C@@H]3C[C@H](OC4O[C@H](C)[C@@H](O)[C@H](OC5OC[C@@H](OC6O[C@H](CO)[C@H](O)[C@H](O)[C@H]6OC6O[C@H](C)[C@H](O)[C@H](O)[C@H]6O)[C@H](O)[C@H]5OC5O[C@H](C)[C@@H](O)[C@H](O)[C@H]5O)[C@H]4O)[C@H]4C[C@@H](OS(=O)(=O)[O-])CC[C@]4(C)C3=CC[C@@]21C.[Na+]` (stereo partly drawn), in the data set with Patiria pectinifera [1], the outcome was Active. For the same compound, the results for the ED50 (in the data set on Patiria pectinifera [2]; in data set [4]) were 100 µg/mL and 15 µg/mL, respectively. Also, in data set [3], the LD99 is 5 µg/mL.
As to `CC(C)C(C)C(=O)C[C@@](C)(O)[C@H]1CC[C@H]2[C@@H]3C[C@H](OC4O[C@H](C)[C@@H](O)[C@H](OC5OC[C@@H](OC6O[C@H](CO)[C@H](O)[C@H](O)[C@H]6OC6O[C@H](C)[C@H](O)[C@H](OC7O[C@H](C)[C@H](O)[C@H](O)[C@H]7O)[C@H]6O)[C@H](O)[C@H]5OC5O[C@H](C)[C@@H](O)[C@H](O)[C@H]5O)[C@H]4O)[C@H]4C[C@@H](OS(=O)(=O)[O-])CC[C@]4(C)C3=CC[C@@]21C.[Na+]` (stereo partly drawn), the outcome in the data set with Patiria pectinifera [1] was Active. In addition, the ED50 in the data set on Patiria pectinifera [2] stood at 100 µg/mL; in data set [4], 5 µg/mL. In data set [5], the HI is listed as 21500. Further, the LD99 in data set [3] came to 2 µg/mL.
For `CC(C)CC(=O)C[C@@](C)(O)[C@H]1CC[C@H]2[C@@H]3C[C@H](OC4O[C@H](C)[C@@H](O)[C@H](OC5OC[C@@H](OC6O[C@H](CO)[C@H](O)[C@H](O)[C@H]6OC6O[C@H](C)[C@H](O)[C@H](OC7O[C@H](C)[C@H](O)[C@H](O)[C@H]7O)[C@H]6O)[C@H](O)[C@H]5OC5O[C@H](C)[C@@H](O)[C@H](O)[C@H]5O)[C@H]4O)[C@H]4C[C@@H](OS(=O)(=O)[O-])CC[C@]4(C)C3=CC[C@@]21C.[Na+]` (stereo partly drawn), in that order: “Active”, 200 µg/mL, 15 µg/mL, 11400 and 5 µg/mL.
With `CC(C)=CC(=O)C[C@@](C)(O)[C@H]1CC[C@H]2[C@@H]3C[C@H](OC4O[C@H](C)[C@@H](O)[C@H](OC5OC[C@@H](OC6O[C@H](C)[C@@H](O)[C@H](O)[C@H]6OC6O[C@H](C)[C@H](O)[C@H](O)[C@H]6O)[C@H](O)[C@H]5OC5O[C@H](C)[C@@H](O)[C@H](O)[C@H]5O)[C@H]4O)[C@H]4C[C@@H](O)CC[C@]4(C)C3=CC[C@@]21C` (stereo partly drawn), the outcome in the data set with Patiria pectinifera [1] was Active. The values for the ED50 (in the data set on Patiria pectinifera [2]; in data set [4]) were 100 µg/mL (≈ 87.2 µM) and 10 µg/mL (≈ 8.72 µM), respectively. Moreover, the LD99 in data set [3] amounted to 10 µg/mL.
Consider `CC(C)CC(=O)C[C@@](C)(O)[C@H]1CC[C@H]2[C@@H]3C[C@H](OC4O[C@H](C)[C@@H](O)[C@H](OC5OC[C@@H](OC6O[C@H](C)[C@@H](O)[C@H](O)[C@H]6OC6O[C@H](C)[C@H](O)[C@H](OC7O[C@H](C)[C@H](O)[C@H](O)[C@H]7O)[C@H]6O)[C@H](O)[C@H]5OC5O[C@H](C)[C@@H](O)[C@H](O)[C@H]5O)[C@H]4O)[C@H]4C[C@@H](OS(=O)(=O)[O-])CC[C@]4(C)C3=CC[C@@]21C.[Na+]` (stereo partly drawn), for which the outcome in the data set with Patiria pectinifera [1] was Active. Further, the ED50 with Patiria pectinifera [2] was determined as 200 µg/mL; in data set [4] it was 15 µg/mL. Moreover, the LD99 in data set [3] is 10 µg/mL.
`CC(C)CC(=O)C[C@@](C)(O)[C@H]1CC[C@H]2[C@@H]3C[C@H](OC4O[C@H](C)[C@@H](O)[C@H](OC5OC[C@@H](OC6O[C@H](CO)[C@@H](O)[C@H](O)[C@H]6OC6O[C@H](C)[C@H](O)[C@H](O)[C@H]6O)[C@H](O)[C@H]5OC5O[C@H](C)[C@@H](O)[C@H](O)[C@H]5O)[C@H]4O)[C@H]4C[C@@H](OS(=O)(=O)[O-])CC[C@]4(C)C3=CC[C@@]21C.[Na+]` (stereo partly drawn): in the data set with Patiria pectinifera [1], the result was Active. The ED50 in the data set with Patiria pectinifera [2] stood at 200 µg/mL; in data set [4], 15 µg/mL. Moreover, the LD99 in data set [3] came to 2 µg/mL.
`CC(C)CC(=O)C[C@@](C)(O)[C@H]1CC[C@H]2[C@@H]3C[C@H](OC4O[C@H](CO)[C@@H](O)[C@H](OC5O[C@H](C)[C@@H](OC6O[C@H](C)[C@@H](O)[C@H](O)[C@H]6OC6O[C@H](C)[C@H](O)[C@H](O)[C@H]6O)[C@H](O)[C@H]5OC5O[C@H](C)[C@@H](O)[C@H](O)[C@H]5O)[C@H]4O)[C@H]4C[C@@H](OS(=O)(=O)[O-])CC[C@]4(C)C3=CC[C@@]21C.[Na+]` (stereo partly drawn): the result with Patiria pectinifera [1] was Active. In addition, the ED50 in the data set on Patiria pectinifera [2] was found to be 50 µg/mL; in data set [4] it was 5 µg/mL. In addition, the LD99 in data set [3] was 5 µg/mL.
As to `CC(C)CC(=O)C[C@@](C)(O)[C@H]1CC[C@H]2[C@@H]3C[C@H](OC4O[C@H](C)[C@@H](O)[C@H](OC5OC[C@@H](OC6O[C@H](C)[C@@H](O)[C@H](O)[C@H]6OC6O[C@H](C)[C@H](O)[C@H](O)[C@H]6O)[C@H](O)[C@H]5OC5O[C@H](C)[C@@H](O)[C@H](O)[C@H]5O)[C@H]4O)[C@H]4C[C@@H](OS(=O)(=O)O)CC[C@]4(C)C3=CC[C@@]21C.N` (stereo partly drawn), the outcome with Patiria pectinifera [1] was Active. For the same compound, the ED50 with Patiria pectinifera [2] came out at 200 µg/mL; in data set [4] it was 15 µg/mL. The LD99 in data set [3] is 5 µg/mL.
